Experimental data from US7700577B2, “Carbohydrate based anti-bacterials” (Alchemia Limited, priority 2002, dated 2010).

Experiments:
E. coli = assay: MIC testing, broth microdilution (NCCLS), E. coli; format: cell-based; conditions: E. coli after 24 hours exposure
From the text: (§1) The broth microdilution format of the National Committee for Clinical Laboratory Standards (NCCLS) approved standard for susceptibility tests as outlined in M7-A4 “methods for dillution Antimicrobial susceptibility tests for bacteria that grow aerobically; approved standard—fifth edition”, January 2000 was utilized for minimum inhibitory concentration testing in Mueller-Hinton broth. The broth for Streptococcus pyogenes testing was supplemented with 2% laked horse blood. A positive result in initial testing was determined by complete inhibition of macroscopic bacterial growth at a concentration of 128 micrograms per mL after incubation for 16 to 24 hours at 37 degrees C. In the case of Micrococcus luteus, incubation was at 30 degrees C. […] Bacterial Types Are: • SA24 S. aureus after 24 hours exposure • SA48 S. aureus after 48 hours exposure • EC24 E. coli after 24 hours exposure

S. aureus = assay: MIC testing, broth microdilution (NCCLS), S. aureus; format: cell-based, Staphylococcus aureus; conditions: for SA24 (MIC): S. aureus after 24 hours exposure; for SA48 (MIC): S. aureus after 48 hours exposure
From the text: as §1

| SMILES | EC24 (MIC) (E. coli) | SA24 (MIC) (S. aureus) | SA48 (MIC) (S. aureus) |
| --- | --- | --- | --- |
| O=C(Cc1cccc(C(F)(F)F)c1)NC1COC(CO)C(NC(=O)c2ccc(-c3ccccc3)cc2)C1OC1OC(CO)C(O)C(O)C1NC(=O)Cc1cccc(C(F)(F)F)c1 (centres unmarked) [compound 2] | − (− indicates an MIC of greater then 128 micrograms per mL) | + (+ indicates an MIC value of less than 128 micrograms per mL) | + (+ indicates an MIC value of less than 128 micrograms per mL) |
| O=C(Nc1cccc(C(F)(F)F)c1)NC1C(OC2C(NC(=O)c3cccc(C(F)(F)F)c3)COC(CO)C2NC(=O)c2ccc(-c3ccccc3)cc2)OC(CO)C(O)C1O (centres unmarked) [compound 5] | − (− indicates an MIC of greater then 128 micrograms per mL) | + (+ indicates an MIC value of less than 128 micrograms per mL) | + (+ indicates an MIC value of less than 128 micrograms per mL) |
| O=C(Cc1ccc(C(F)(F)F)cc1)NC1COC(CO)C(NC(=O)c2ccc(-c3ccccc3)cc2)C1OC1OC(CO)C(O)C(O)C1NC(=O)Nc1cccc(C(F)(F)F)c1 (centres unmarked) [compound 7] | − (− indicates an MIC of greater then 128 micrograms per mL) | + (+ indicates an MIC value of less than 128 micrograms per mL) | + (+ indicates an MIC value of less than 128 micrograms per mL) |
| O=C(Nc1cccc(C(F)(F)F)c1)NC1C(OC2C(NC(=O)OCc3ccccc3)COC(CO)C2NC(=O)c2ccc(-c3ccccc3)cc2)OC(CO)C(O)C1O (centres unmarked) [compound 8] | − (− indicates an MIC of greater then 128 micrograms per mL) | + (+ indicates an MIC value of less than 128 micrograms per mL) | + (+ indicates an MIC value of less than 128 micrograms per mL) |
| Cc1ccc(S(=O)(=O)NC2C(OC3C(NC(=N)Nc4cccc(C(F)(F)F)c4)COC(CO)C3NC(=O)c3ccc(-c4ccccc4)cc3)OC(CO)C(O)C2O)cc1 (centres unmarked) [compound 12] | + (+ indicates an MIC value of less than 128 micrograms per mL) | + (+ indicates an MIC value of less than 128 micrograms per mL) | + (+ indicates an MIC value of less than 128 micrograms per mL) |
| Cc1ccc(S(=O)(=O)NC2[C@H](O[C@@H]3C(NC(=N)Nc4cccc(C(F)(F)F)c4)COC(CO)[C@@H]3N)OC(CO)[C@@H](O)[C@@H]2O)cc1 (some centres unmarked) [compound 13] | – | + (+ indicates an MIC value of less than 128 micrograms per mL) | – |
| N=C(Nc1cccc(C(F)(F)F)c1)NC1[C@H](O[C@@H]2C(NC(=N)Nc3cccc(C(F)(F)F)c3)COC(CO)[C@@H]2NC(=O)c2ccc(-c3ccccc3)cc2)OC(CO)[C@@H](O)[C@@H]1O (some centres unmarked) [compound 16] | + (+ indicates an MIC value of less than 128 micrograms per mL) | + (+ indicates an MIC value of less than 128 micrograms per mL) | + (+ indicates an MIC value of less than 128 micrograms per mL) |
| CCCCCC(C)CCC(=O)N[C@H]1C(CO)OCC(NC(=N)Nc2cccc(C(F)(F)F)c2)[C@H]1O[C@@H]1OC(CO)[C@@H](O)[C@H](O)C1NC(=N)Nc1cccc(C(F)(F)F)c1 (some centres unmarked) [compound 19] | + (+ indicates an MIC value of less than 128 micrograms per mL) | + (+ indicates an MIC value of less than 128 micrograms per mL) | + (+ indicates an MIC value of less than 128 micrograms per mL) |
| O=C(N[C@H]1C(CO)OCC(NS(=O)(=O)c2cccc(C(F)(F)F)c2)[C@H]1O[C@@H]1OC(CO)[C@@H](O)[C@H](O)C1NS(=O)(=O)c1cccc(C(F)(F)F)c1)c1ccc(-c2ccccc2)cc1 (some centres unmarked) [compound 36] | – | + (+ indicates an MIC value of less than 128 micrograms per mL) | + (+ indicates an MIC value of less than 128 micrograms per mL) |
| NC1[C@H](O[C@@H]2C(NC(=O)Nc3cccc(C(F)(F)F)c3)COC(CO)[C@@H]2NC(=O)c2ccc(-c3ccccc3)cc2)OC(CO)[C@@H](O)[C@@H]1O (some centres unmarked) [compound 43] | – | + (+ indicates an MIC value of less than 128 micrograms per mL) | – |
| O=C(Nc1cccc(C(F)(F)F)c1)NC1COC(CO)[C@H](NC(=O)c2ccc(-c3ccccc3)cc2)[C@@H]1O[C@@H]1OC(CO)[C@@H](O)[C@H](O)C1NC(=O)OCc1ccccc1 (some centres unmarked) [compound 44] | – | + (+ indicates an MIC value of less than 128 micrograms per mL) | + (+ indicates an MIC value of less than 128 micrograms per mL) |
| N[C@H]1C(CO)OCC(NC(=O)Nc2cccc(C(F)(F)F)c2)[C@H]1O[C@@H]1OC(CO)[C@@H](O)[C@H](O)C1NC(=O)OCc1ccccc1 (some centres unmarked) [compound 45] | – | + (+ indicates an MIC value of less than 128 micrograms per mL) | – |
| Cc1ccc(NC(=N)NC2[C@H](O[C@@H]3C(NC(=O)Nc4cccc(C(F)(F)F)c4)COC(CO)[C@@H]3N)OC(CO)[C@@H](O)[C@@H]2O)cc1 (some centres unmarked) [compound 47] | – | + (+ indicates an MIC value of less than 128 micrograms per mL) | – |
| Cc1ccc(S(=O)(=O)NC2[C@H](O[C@@H]3C(NC(=O)Nc4cccc(C(F)(F)F)c4)COC(CO)[C@@H]3N)OC(CO)[C@@H](O)[C@@H]2O)cc1 (some centres unmarked) [compound 50] | – | + (+ indicates an MIC value of less than 128 micrograms per mL) | – |
| CCCCCC(C)CCC(=O)N[C@H]1C(CO)OCC(NC(=O)Nc2cccc(C(F)(F)F)c2)[C@H]1O[C@@H]1OC(CO)[C@@H](O)[C@H](O)C1NC(=O)Nc1cccc(C(F)(F)F)c1 (some centres unmarked) [compound 55] | – | + (+ indicates an MIC value of less than 128 micrograms per mL) | + (+ indicates an MIC value of less than 128 micrograms per mL) |
| O=C(/C=C/c1ccc(Cl)cc1)N[C@H]1C(CO)OCC(NC(=O)Nc2cccc(C(F)(F)F)c2)[C@H]1O[C@@H]1OC(CO)[C@@H](O)[C@H](O)C1NC(=O)Nc1cccc(C(F)(F)F)c1 (some centres unmarked) [compound 58] | – | + (+ indicates an MIC value of less than 128 micrograms per mL) | + (+ indicates an MIC value of less than 128 micrograms per mL) |
| CCCCCN(CCCCC)C1C(CO)OCC(NC(=O)Nc2cccc(C(F)(F)F)c2)C1OC1OC(CO)C(O)C(O)C1NC(=O)Nc1cccc(C(F)(F)F)c1 (centres unmarked) [compound 60] | – | + (+ indicates an MIC value of less than 128 micrograms per mL) | + (+ indicates an MIC value of less than 128 micrograms per mL) |
| CCCCCCCCOc1ccc(C(=O)NC2C(CO)OCC(NC(=O)Nc3cccc(C(F)(F)F)c3)C2OC2OC(CO)C(O)C(O)C2NC(=O)Nc2cccc(C(F)(F)F)c2)cc1 (centres unmarked) [compound 64] | – | + (+ indicates an MIC value of less than 128 micrograms per mL) | + (+ indicates an MIC value of less than 128 micrograms per mL) |
| CCCCCCCCCCC(=O)NC1C(CO)OCC(NC(=O)Nc2cccc(C(F)(F)F)c2)C1OC1OC(CO)C(O)C(O)C1NC(=O)OCc1ccccc1 (centres unmarked) [compound 78] | – | + (+ indicates an MIC value of less than 128 micrograms per mL) | – |
| CCCCCCCCCCC(=O)NC1C(CO)OCC(NC(=O)Nc2cccc(C(F)(F)F)c2)C1OC1OC(CO)C(O)C(O)C1NS(=O)(=O)c1ccc(C)cc1 (centres unmarked) [compound 79] | – | + (+ indicates an MIC value of less than 128 micrograms per mL) | – |
| CCCCCCCCCCC(=O)NC1C(CO)OCC(NC(=O)NCCCC)C1OC1OC(CO)C(O)C(O)C1NS(=O)(=O)c1ccc(C)cc1 (centres unmarked) [compound 80] | – | + (+ indicates an MIC value of less than 128 micrograms per mL) | – |
